Patent US20100041896A1, “Macrolide compound with bis-oxazoly” (priority 2008, published 2010)
Values after ≈ are worked out from the molar mass of the structure shown.

What was measured:
K562 cells = assay: anti-tumor in vitro experiment, K562 cell growth inhibition (trypan blue counting); assay type: cell-based; details: Homo sapiens, 48 hours at 37° C., trypan blue living-cell count, read-out: median inhibitory concentration IC50
Experimental: Implementation case 3: anti-tumor in vitro experiments
The cultivation condition for K562 cells (human chronic myeloid leukemia leap cell lines) is: the volume fraction of 10 percent of the calf serum RPMI1640, penicillin (100 IU/ml) and streptomycin (100 μg/ml), at 37° C., 5% CO2 incubation box for cultivation. Take the logarithm growth period cells used for the inhibition rate experiments, with the concentration of cells inoculated 2.5×10^5/ml. In the 96-pore cultivation board, K562 cells are vaccinated with the inoculation amount of about 5×10^4/pore, 200 μl each pore. The drug is dissolved in dimethyl sulfoxide (DMSO), making the storage fluid of 10 mg/ml. Four groups are set up in this experiment, adding different concentrations of drugs respectively, so that the final concentrations are respectively 0.1, 1, 10, 100 μg/ml. There is no drug added for the reference control group, and three parallel holes are set up for each group, cultivating at 37° C. for 48 hours. Taking 0.4 percent trypan blue liquid (take 4 g trypan blue and put it into 100 ml PBS, making four percent trypan blue raw fluid, filtrated and disinfected, stored in 4° C. refrigerator, ready to use. Concentration is of 0.4 percent) and the cell suspension fluid, 50 μl respectively, mixing, and then take appropriate mixed fluid to fill in cell counting board, counting the four big grid non-coloring living cells. […]

[1] = Solubility (physical and chemical properties); assay type: physicochemical

With `C/C1=C/[C@H](C)C[C@H](C)[C@H](Cc2cnco2)OC(=O)/C(C)=C\[C@H](C)C[C@H](C)C(Cc2cnco2)OC1=O` (stereo partly shown) [FW-04-806] the IC50 (K562 cells) was 12.4 µg/mL (≈ 24.8 µM), the Solubility ([1]; in methyl alcohol, ethyl acetate and dimethylsulfoxide) was “soluble” and the Solubility ([1]; in n-hexane or petroleum ether) was “nearly insoluble”. The Solubility ([1]; in water) was “insoluble”.
